Experimental data as given in patent US20100126880A1 (priority 2006, published 2010).

Tested on: dsDNA
Excerpt: Intercalation properties of EDOT-ND-Os were further studied by competitive displacement assay.

N[3-(imidazol-1-yl)propyl]-N′-[8-((2,3-dihydrothieno[3,4-b][1,4]dioxin-3-yl)methoxy)-3,6-dioxaoctyl]-1,4,5,8-naphthalenetetracarboxydiimide complex with Os(bpy)2Cl2 [EDOT-ND-Os]
binding constant: 8×10^4
